A short description of this test: Inhibition of VEGFR2-mediated angiogenesis in human HUVEC cells after 24 hrs by inverted photomicroscopic analysis.

By IC50 is commonly meant the concentration that gives 50% inhibition. A higher IC50 goes with weaker potency. For `COC(=O)Nc1nc2ccc(C(=O)c3ccccc3)cc2[nH]1` [methyl (5-benzoyl-1H-benzimidazol-2-yl)carbamate], the 50% inhibitory concentration (IC50) was determined as 8.8 µM.

These data come from BindingDB's records for doi:10.1021/jm300576q (Georgetown University Medical Center, 2012).
